In patent US20090048269A1 (AstraZeneca AB, priority 2007, published 2009):

Biological target: T1, human ALK5 (Homo sapiens, UniProt P36897)
T1 sequence (P36897 162-503): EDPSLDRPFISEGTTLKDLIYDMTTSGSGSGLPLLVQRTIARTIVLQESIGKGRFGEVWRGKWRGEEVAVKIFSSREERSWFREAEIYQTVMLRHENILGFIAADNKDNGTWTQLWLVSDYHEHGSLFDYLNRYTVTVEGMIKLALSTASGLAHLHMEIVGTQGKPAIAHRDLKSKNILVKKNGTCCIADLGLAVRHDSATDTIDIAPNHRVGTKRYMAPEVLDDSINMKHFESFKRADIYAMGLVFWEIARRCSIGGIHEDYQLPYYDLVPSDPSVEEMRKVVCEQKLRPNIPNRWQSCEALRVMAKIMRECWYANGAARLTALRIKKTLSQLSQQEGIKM
Assay: ALK5 Enzyme Assay 2 (fluorescence polarisation probe displacement)
Type: binding
Design: 6His tagged human ALK5 (residues162-503) was grown and purified from insect cells; 6His; made in house; host or cells: insect cells
Conditions: read-out: EAA2: activity (μM) using Enzyme Assay 2
Method: The ability of a compound to bind and inhibit ALK5 can be measured by its capacity to displace a probe molecule from recombinant ALK5 in an in vitro assay. Provided the probe molecule is derivatised with a fluorescent probe or is fluorescent itself, the binding affinity can be measured using Fluorescence Polarisation (FP). […] Assay measurements were performed in 50 mM HEPES pH7.4, 10 mM MgCl2, 1 mM DTT, 0.01% CHAPS in a final assay volume of 12 μl. Briefly 6 μl of ALK5 protein, final concentration of 3 μg/mL, was added to each well of a 384 well assay plate containing 12 nL of each concentration of test compound dissolved in DMSO. 6 μL of a solution containing an ALK5 FP probe ((2Z)-3-(6-{4-[2-({4-[(6-chloro[1,3]dioxolo[4,5-b]pyridin-7-yl)amino]-5-(1-methylethoxy)quinazolin-7-yl}oxy)ethyl]piperazin-1-yl}-6-oxohexyl)-2-[(2E,4E)-5-(3-ethyl-1,1-dimethyl-6,8-disulfo-1H-benzo[e]indolium-2-yl)penta-2,4-dien-1-ylidene]-1,1-dimethyl-6-sulfo-2,3-dihydro-1H-benzo[e]indole-8-sulfonate), final concentration 50 nM, and ATP, final concentration 1 μM.

SMILES | IC50
Cc1ccc(Oc2ccnc(Nc3ccccc3)c2)c(C(=O)NCc2ccc[nH]2)n1 [Example 94, 3-(2-Anilinopyridin-4-yl)oxy-6-methyl-N-(1H-pyrrol-2-ylmethyl)-pyridine-2-carboxamide] | 0.119 µM
Cc1ccc(Oc2ccnc(Nc3ccccc3)c2)c(C(=O)NCCc2ccccc2)n1 [Example 95, 3-(2-Anilinopyridin-4-yl)oxy-6-methyl-N-phenethylpyridine-2-carboxamide] | 0.0209 µM
Cc1cc(Oc2ccnc(Nc3cccc(C(=O)NCc4ccccn4)c3)c2)c(-c2ccccn2)nc1C [Example 99, 3-{[4-(5,6-Dimethyl-2-pyridin-2-ylpyridin-3-yl)oxypyridin-2-yl]-amino}-N-(pyridin-2-ylmethyl)benzamide] | 0.00734 µM
Cc1cc(Oc2ccnc(Nc3cccc(C(=O)NCc4ccncc4)c3)c2)c(-c2ccccn2)nc1C [Example 100, 3-{[4-(5,6-Dimethyl-2-pyridin-2-ylpyridin-3-yl)oxypyridin-2-yl]-amino}-N-(pyridin-4-ylmethyl)benzamide] | 0.00576 µM
Cc1cc(Oc2ccnc(Nc3cccc(C(=O)N4CCCCCC4)c3)c2)c(-c2ccccn2)nc1C [Example 102, Azepan-1-yl-(3-{[4-(5,6-dimethyl-2-pyridin-2-ylpyridin-3-yl)-oxypyridin-2-yl]amino}phenyl)methanone] | 0.0113 µM
C#CC(C)(C)NC(=O)c1cccc(Nc2cc(Oc3cc(C)c(C)nc3-c3ccccn3)ccn2)c1 [Example 103, 3-{[4-(5,6-Dimethyl-2-pyridin-2-ylpyridin-3-yl)oxypyridin-2-yl]-amino}-N-(2-methylbut-3-yn-2-yl)benzamide] | 0.0375 µM
Cc1ccc(Oc2ccnc(Nc3cccc(S(N)(=O)=O)c3)c2)c(C)n1 [Example 105, 3-{[4-(2,6-Dimethylpyridin-3-yl)oxypyridin-2-yl]amino}benzene-sulfonamide] | 0.00764 µM
CNS(=O)(=O)c1ccc(Nc2cc(Oc3ccc(C)nc3C)ccn2)cc1 [Example 108, 4-{[4-(2,6-Dimethylpyridin-3-yl)oxypyridin-2-yl]amino}-N-methylbenzenesulfonamide] | 0.171 µM
COCCCNS(=O)(=O)c1ccc(Nc2cc(Oc3ccc(C)nc3C)ccn2)cc1 [Example 109, 4-{[4-(2,6-Dimethylpyridin-3-yl)oxypyridin-2-yl]amino}-N-(3-methoxypropyl)benzenesulfonamide] | 0.269 µM
COCCNS(=O)(=O)c1ccc(Nc2cc(Oc3ccc(C)nc3C)ccn2)cc1 [Example 110, 4-{[4-(2,6-Dimethylpyridin-3-yl)oxypyridin-2-yl]amino}-N-(2-methoxyethyl)benzenesulfonamide] | 0.203 µM
Cc1ccc(Oc2ccnc(Nc3cccc(S(=O)(=O)Nc4ccccc4)c3)c2)c(C)n1 [Example 111, 3-{[4-(2,6-Dimethylpyridin-3-yl)oxypyridin-2-yl]amino}-N-phenylbenzenesulfonamide] | 0.621 µM
Cc1ccc(Oc2ccnc(Nc3ccc(S(=O)(=O)N(C)CCO)cc3)c2)c(C)n1 [Example 112, 4-{[4-(2,6-Dimethylpyridin-3-yl)oxypyridin-2-yl]amino}-N-(2-hydroxyethyl)-N-methylbenzenesulfonamide] | 0.505 µM
CCCCCNS(=O)(=O)c1ccc(Nc2cc(Oc3ccc(C)nc3C)ccn2)cc1 [Example 114, 4-{[4-(2,6-Dimethylpyridin-3-yl)oxypyridin-2-yl]amino}-N-pentylbenzenesulfonamide] | 3.01 µM
Cc1ccc(Oc2ccnc(Nc3ccc(S(=O)(=O)N4CCCCC4)cc3)c2)c(C)n1 [Example 115, 4-(2,6-Dimethylpyridin-3-yl)oxy-N-(4-piperidin-1-ylsulfonyl-phenyl)pyridin-2-amine] | 5.41 µM
CCN(CC)S(=O)(=O)c1ccc(Nc2cc(Oc3ccc(C)nc3C)ccn2)cc1 [Example 116, 4-{[4-(2,6-Dimethylpyridin-3-yl)oxypyridin-2-yl]amino}-N,N-diethylbenzenesulfonamide] | 1.42 µM
Cc1ccc(Oc2ccnc(Nc3ccc(S(=O)(=O)N(C)C)cc3)c2)c(C)n1 [Example 117, 4-{[4-(2,6-Dimethylpyridin-3-yl)oxypyridin-2-yl]amino}-N,N-dimethylbenzenesulfonamide] | 0.37 µM
Cc1ccc(Oc2ccnc(Nc3ccc(C(=O)N(C)C)cc3)c2)c(C)n1 [Example 121, 4-{[4-(2,6-Dimethylpyridin-3-yl)oxypyridin-2-yl]amino}-N,N-dimethylbenzamide] | 0.088 µM
CC(=O)N(C)c1ccc(Nc2cc(Oc3ccc(C)nc3C)ccn2)cc1 [Example 122, N-(4-{[4-(2,6-Dimethylpyridin-3-yl)oxypyridin-2-yl]amino}-phenyl)-N-methylacetamide] | 0.215 µM
Cc1ccc(Oc2ccnc(Nc3ccc(S(C)(=O)=O)cc3)c2)c(C)n1 [Example 124, 4-(2,6-Dimethylpyridin-3-yl)oxy-N-(4-methylsulfonylphenyl)-pyridin-2-amine] | 0.077 µM
Cc1ccc(Oc2ccnc(Nc3cccc(C#N)c3)c2)c(C)n1 [Example 125, 3-{[4-(2,6-Dimethylpyridin-3-yl)oxypyridin-2-yl]amino}-benzonitrile] | 0.192 µM
CC(=O)Nc1cc(Nc2cc(Oc3ccc(C)nc3C)ccn2)ccc1C [Example 127, N-(5-{[4-(2,6-Dimethylpyridin-3-yl)oxypyridin-2-yl]amino}-2-methylphenyl)acetamide] | 0.0145 µM
Cc1ccc(Oc2ccnc(Nc3cccc(NS(C)(=O)=O)c3)c2)c(C)n1 [Example 128, N-(3-{[4-(2,6-Dimethylpyridin-3-yl)oxypyridin-2-yl]amino}-phenyl)methanesulfonamide] | 0.0321 µM

More lines, in order of falling IC50, values ahead:

IC50 | SMILES
0.592 µM | CC(=O)NS(=O)(=O)c1ccc(Nc2cc(Oc3ccc(C)nc3C)ccn2)cc1 [Example 107, N-{4-[4-(2,6-Dimethylpyridin-3-yloxy)pyridin-2-ylamino]phenyl-sulfonyl}acetamide]
0.527 µM | Cc1ccc(Oc2ccnc(Nc3ccc(S(=O)(=O)Nc4ccccn4)cc3)c2)c(C)n1 [Example 106, 4-[4-(2,6-Dimethylpyridin-3-yloxy)pyridin-2-ylamino]-N-(pyridin-2-yl)benzenesulfonamide]
0.292 µM | Cc1ccc(Oc2ccnc(Nc3ccccc3)c2)c(C(=O)NCc2ccccc2)n1 [Example 96, 3-(2-Anilinopyridin-4-yl)oxy-N-benzyl-6-methylpyridine-2-carboxamide]
0.288 µM | Cc1ccc(Oc2ccnc(Nc3ccc(S(=O)(=O)NC4CCC4)cc3)c2)c(C)n1 [Example 113, N-Cyclobutyl-4-{[4-(2,6-dimethylpyridin-3-yl)oxypyridin-2-yl]-amino}benzenesulfonamide]
0.155 µM | COCC(C)NS(=O)(=O)c1ccc(Nc2cc(Oc3ccc(C)nc3C)ccn2)cc1 (stereo not shown) [Example 118, 4-{[4-(2,6-Dimethylpyridin-3-yl)oxypyridin-2-yl]amino}-N-(1-methoxypropan-2-yl)benzenesulfonamide]
0.103 µM | Cc1ccc(Oc2ccnc(Nc3ccc(OCC(O)CNC(C)C)cc3)c2)c(C)n1 (stereo not shown) [Example 129, 1-(4-{[4-(2,6-Dimethylpyridin-3-yl)oxypyridin-2-yl]amino}-phenoxy)-3-(propan-2-ylamino)propan-2-ol]
0.0513 µM | Cc1cc(Oc2ccnc(Nc3cccc(C(=O)N4CCC4)c3)c2)c(-c2ccccn2)nc1C [Example 98, Azetidin-1-yl-(3-{[4-(5,6-dimethyl-2-pyridin-2-ylpyridin-3-yl)-oxypyridin-2-yl]amino}phenyl)methanone]
0.0377 µM | Cc1ccc(Oc2ccnc(Nc3cccc(O)c3)c2)c(C)n1 [Example 126, 3-{[4-(2,6-Dimethylpyridin-3-yl)oxypyridin-2-yl]amino}phenol]
0.0324 µM | CC(=O)Nc1ccc(Nc2cc(Oc3ccc(C)nc3C)ccn2)cc1 [Example 123, N-(4-{[4-(2,6-Dimethylpyridin-3-yl)oxypyridin-2-yl]amino}-phenyl)acetamide]
0.0319 µM | Cc1ccc(Oc2ccnc(Nc3cccc(S(=O)(=O)N4CCOCC4)c3)c2)c(C)n1 [Example 119, 4-(2,6-Dimethylpyridin-3-yl)oxy-N-(3-morpholin-4-ylsulfonyl-phenyl)pyridin-2-amine]
0.0121 µM | Cc1cc(Oc2ccnc(Nc3cccc(S(N)(=O)=O)c3)c2)c(-c2ccccn2)nc1C [Example 104, 3-{[4-(5,6-Dimethyl-2-pyridin-2-ylpyridin-3-yl)oxypyridin-2-yl]-amino}benzenesulfonamide]
0.0114 µM | Cc1cc(Oc2ccnc(Nc3cccc(C(=O)N4CCCC(C)C4)c3)c2)c(-c2ccccn2)nc1C (stereo not shown) [Example 101, (3-{[4-(5,6-Dimethyl-2-pyridin-2-ylpyridin-3-yl)oxypyridin-2-yl]-amino}phenyl)-(3-methylpiperidin-1-yl)methanone]
